# Laboratory results taken from a melting point compilation (Tetko et al.; mined from patent text by program, amines drawn as free bases though some values may be those of a salt).
row,SMILES,melting point
1,CCCN(C(=O)OC(C)(C)C)C(CC(C)C)C(=O)NCC(=O)Oc1c(Cl)c(Cl)c(Cl)c(Cl)c1Cl (centres undefined),151 to 153 °C
2,Cc1cc(-c2cc(C(F)(F)F)n3ncc(C(=O)Nc4cccc(S(=O)(=O)NC5CC5)c4)c3n2)ccc1Cl,244 °C
3,C#CCOC[C@@H](NC(C)=O)C(=O)OC,58.5 to 59.5 °C
4,Cc1cccc(OC2SCC(O)C(O)C2O)n1 (centres undefined),54 °C
5,O=C1COc2cc(Sc3ccc(O)c(O)c3)ccc2N1,236 to 238 °C
6,CC(C)(C)OC(=O)N(Cc1ccccc1)[C@H](COP(=O)(Oc1ccccc1)Oc1ccccc1)C(=O)O,108 to 109 °C
7,Clc1ccc2ncc(Cl)nc2c1,120 to 121 °C
8,O=C1N(Cc2nccnc2C(F)(F)F)c2ccccc2C12COc1cc3c(cc12)OCCO3 (centres undefined),230 to 232 °C
9,CCCn1c(=O)n2c(=O)n(COCc3ccccc3)nc2c2c1ncn2COCc1ccccc1,88.9 to 90.3 °C
10,O=C(Nc1ccc2nc(CN3CCCC3)ccc2c1)[C@H]1CO[C@H](c2ccc(Cl)cc2)OC1,244 to 246 °C
11,CC(=O)OCCn1nc(-c2cc(C(C)(C)C)c(O)c(C(C)(C)C)c2)c2cccnc21,115 to 116 °C
12,C=CCOC(=O)c1cccc(NC(=O)NC(CC(=O)OC(C)(C)C)C(=O)Nc2ccccc2C(=O)c2ccc(OC)cc2)c1 (centres undefined),190 to 191 °C
13,CN1C[C@H](O)C[C@H]1CCOc1ccc(Cl)cc1CCc1ccccc1,65 to 68 °C
14,C[C@]12CC(=O)[C@H]3[C@@H](CCC4=CC(=O)CC[C@@H]43)[C@@H]1CCC2=O,204 to 209 °C
15,CCc1noc(C)c1C(C)=NNc1ccccc1,72 to 75 °C
16,COc1cc(C)c(C(=O)c2c(OC)ccc(Br)c2Cl)c(OC)c1OC,87 to 88 °C
17,O=c1[nH]c2ccc(NCCCc3ccccc3)cc2o1,129 to 130 °C
18,COc1ccc(CNC(=O)C(=O)NCCc2cccs2)c(OC)c1,146 to 147 °C
19,O=C(CCN1CCC2(CC1)OC(=O)c1ccccc12)c1ccccc1,108 to 110 °C
20,CCOC(=O)c1c(C)cc2cnc(Cc3ccccc3)nc2c1C,77 to 79 °C

row,SMILES,melting point
1,O=C(CCCCCCNC(=O)C(=O)c1cn2c3c(cccc13)CCC2)NOC1CCCCO1 (centres undefined),140 to 142 °C
2,CC1(C)C(=O)Nc2cc(C=O)ccc2N(CC2CC2)C1=O,124 to 125 °C
3,Cc1nc(C)c(-c2ccnc(Nc3cccc([N+](=O)[O-])c3)n2)s1,176 to 178 °C
4,CC(C)(C)OC(=O)c1ccccc1-c1ccc(CNC(=O)C2(N)CCOCC2)cc1,125 to 127 °C
5,CC(C)(C)c1ccc(N)cn1,61.5 to 62.7 °C
6,COC(=O)c1c(S(N)(=O)=O)c(C)nn1-c1ccccn1,170 to 172 °C
7,CCCn1nc(C(C)C)c(C(=O)OCOC(=O)C(C)(C)C)c1Cc1ccc(-c2ccccc2-c2nnn(C(c3ccccc3)(c3ccccc3)c3ccccc3)n2)cc1,128 to 130 °C
8,Cc1ccc(-c2[nH]c(-c3cnc4ccccc4c3)nc2C(=O)Nc2nccs2)cc1,> 250 °C
9,CN1C(=O)C2CC(c3ccccc3)(C2)C1=O,175 to 176 °C
10,CON=C(C(=O)O)c1csc(=N)n1O,209 to 210 °C
11,CN(C)c1ccnc(-c2ccncc2)n1,109 to 110 °C
12,Cn1cc(CC#N)c2cc([N+](=O)[O-])ccc21,165 to 166 °C
13,CC1(C)OC(c2ccc(S(N)(=O)=O)cc2)=C(c2cc3ccccc3o2)C1=O,143 to 145 °C
14,O=C=Nc1cc(NS(=O)(=O)CCl)c(Cl)cc1F,102 °C
15,CC(C)(C)OC(=O)NC(N)Cc1ccccc1 (centres undefined),40 to 50 °C
16,CS(=O)(=O)c1ccc(-c2nn3c4c(oc3c2-c2ccc(F)cc2)CSCC4)cc1,178 to 180 °C
17,O=C(NCc1ccccn1)c1ccc(C=Cc2ccccc2OCc2ccccc2)cc1,123 to 127 °C
18,COc1cccc(CNc2n[nH]c(N)c2C#N)c1,151 to 153 °C
19,Nc1cc(CCC(=O)Nc2ccc(Cl)cc2Cl)ccc1O,130 to 131 °C
